We go through two compounds from the NIST ThermoML archive (doi:10.1021/acs.jced.8b00560).

Each structure is given as a SMILES string. Numbers after ± are expanded uncertainties.

For the series the following is noted: Crystal; DSC.

In the case of `NC(=O)c1cccnc1` [3-pyridinecarboxamide], the Triple point temperature is listed as 398.5 ± 3.1 K.
Next, `O=C(O)c1ccccc1` [benzoic acid]: 392.5 ± 3.1 K.
